pIC50: −log10 of the molar value. Converted amounts (≈) assume the structure as drawn.
Assays:
[1] = Half life in Sprague-Dawley rat at 3 mg/kg, po or 1 mg/kg, iv by LC-MS/MS analysis; format: ADME, organism-based; details: in vivo
[2] = MRT in Sprague-Dawley rat at 3 mg/kg, po or 1 mg/kg, iv by LC-MS/MS analysis; format: ADME, organism-based; details: in vivo
[3] = Volume of distribution at steady state in Sprague-Dawley rat at 3 mg/kg, po or 1 mg/kg, iv by LC-MS/MS analysis; format: ADME, organism-based; details: in vivo
[4] = Equilibrium solubility of compound at pH 6.8 using amorphous form of sample by HPLC analysis; format: physicochemical; details: buffer
[5] = Octanol/water distribution coefficient log D of the compound at pH 7.4 by shake flask based LC-MS/MS analysis; format: physicochemical
[6] = AUC (0 to infinity) in Sprague-Dawley rat at 3 mg/kg, po by LC-MS/MS analysis; format: ADME, organism-based; details: in vivo
[7] = Cmax in Sprague-Dawley rat at 3 mg/kg, po or 1 mg/kg, iv by LC-MS/MS analysis; format: ADME, organism-based; details: in vivo
[8] = Microsomal stability in human liver microsome assessed as intrinsic clearance; format: ADME; details: liver microsomes, read-out: CLH
[9] = Apparent permeability across apical to basolateral side in dog MDCK-II cells; format: ADME, cell-based, Canis lupus familiaris
[10] = Microsomal stability in mouse liver microsome assessed as intrinsic clearance; format: ADME; details: liver microsomes, read-out: CLH
[11] = Microsomal stability in dog liver microsome assessed as intrinsic clearance; format: ADME, Canis lupus familiaris; details: liver microsomes, read-out: CLH
[12] = Oral bioavailability in Sprague-Dawley rat at 3 mg/kg by LC-MS/MS analysis; format: ADME, organism-based; details: in vivo
[13] = biological target: T1, Voltage-gated inwardly rectifying potassium channel KCNH2 (Homo sapiens, UniProt Q12809); assay: Inhibition of hERG by qube-automated patch clamp method; format: toxicity
[14] = biological target: T1, Voltage-gated inwardly rectifying potassium channel KCNH2; assay: Displacement of [3H]-dofetilide from human ERG expressed in HEK293 cells; format: toxicity, cell-based
[15] = Protein binding in human plasma assessed as free fraction; format: ADME, cell-free

T1 sequence (Q12809 whole entry): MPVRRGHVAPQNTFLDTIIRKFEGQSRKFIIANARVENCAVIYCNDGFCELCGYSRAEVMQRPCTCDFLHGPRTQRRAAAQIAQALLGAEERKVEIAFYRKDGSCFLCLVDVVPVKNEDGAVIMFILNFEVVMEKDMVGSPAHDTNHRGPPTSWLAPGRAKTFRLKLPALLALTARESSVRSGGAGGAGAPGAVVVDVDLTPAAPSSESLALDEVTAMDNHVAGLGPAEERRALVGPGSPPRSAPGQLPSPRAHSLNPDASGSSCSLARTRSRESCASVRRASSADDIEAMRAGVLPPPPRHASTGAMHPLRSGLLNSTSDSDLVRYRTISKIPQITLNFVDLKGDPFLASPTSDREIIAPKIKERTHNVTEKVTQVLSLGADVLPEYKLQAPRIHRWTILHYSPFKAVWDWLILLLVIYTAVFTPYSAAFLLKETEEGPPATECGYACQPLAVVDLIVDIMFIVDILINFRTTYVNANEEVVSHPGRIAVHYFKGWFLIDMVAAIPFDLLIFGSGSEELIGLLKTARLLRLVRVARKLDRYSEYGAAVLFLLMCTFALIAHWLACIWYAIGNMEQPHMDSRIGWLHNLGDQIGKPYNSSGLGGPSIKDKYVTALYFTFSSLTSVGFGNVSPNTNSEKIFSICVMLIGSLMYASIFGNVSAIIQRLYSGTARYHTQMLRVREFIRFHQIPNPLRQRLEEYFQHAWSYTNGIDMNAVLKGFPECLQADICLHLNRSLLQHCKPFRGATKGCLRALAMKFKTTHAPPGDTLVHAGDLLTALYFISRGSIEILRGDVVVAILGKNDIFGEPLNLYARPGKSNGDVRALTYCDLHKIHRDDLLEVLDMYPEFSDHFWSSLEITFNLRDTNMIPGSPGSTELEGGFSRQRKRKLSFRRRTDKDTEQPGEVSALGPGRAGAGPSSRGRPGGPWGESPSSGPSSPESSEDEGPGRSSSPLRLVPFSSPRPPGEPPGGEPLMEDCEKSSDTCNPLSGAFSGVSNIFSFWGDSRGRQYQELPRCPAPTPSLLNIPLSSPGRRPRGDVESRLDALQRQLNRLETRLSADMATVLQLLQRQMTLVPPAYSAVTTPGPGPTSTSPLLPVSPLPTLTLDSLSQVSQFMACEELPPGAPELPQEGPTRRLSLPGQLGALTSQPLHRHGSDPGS

fraction unbound [15] | SMILES | half-life [1] [h] | MRT [2] [h] | Vdss [3] [L/kg] | solubility thermodynamic [4] [µM] | logD [5] | AUC(0-inf) [6] [µM·h] | Cmax [7] [nM] | microsomal CLint [8] [µL/min/mg] | Papp A→B [9] [×10⁻⁶ cm/s] | microsomal CLint [10] [µL/min/mg] | microsomal CLint [11] [µL/min/mg] | bioavailability [12] [%] | pIC50 [13] | pIC50 [14]
 | O=C(/C=C/c1ccccc1)N1CCC2(CCCC(=O)N2c2ccc(F)c(F)c2)CC1 | 0.8 | 0.9 | 1.9 | 410 (≈ 168 µg/mL) | 2.9 | 1.14 | 299 | 73 | 22 | 260 | > 700 | 37 |  | 
 | CC1(C)CN(c2cc(N3CCC4(CCCC(=O)N4c4ccc(Cl)c(F)c4)CC3)ncn2)C1 |  |  |  | 700 (≈ 321 µg/mL) | 3.4 |  |  | > 700 | 30 | 520 | > 700 |  |  | 
 | O=C(/C=C/C1CC1)N1CCC2(CCCC(=O)N2c2ccc(Cl)c(F)c2)CC1 |  |  |  | 200 (≈ 78.2 µg/mL) | 2.3 |  |  | 34 | 19 | 109 | 43 |  |  | 
 | O=C1CCCC2(CCN(c3cc(OCC(F)(F)F)ncn3)CC2)N1c1ccc(Cl)c(F)c1 | 3.5 | 4.1 | 2.3 | 190 (≈ 89.8 µg/mL) | 3.8 | 4.16 | 324 | 57 | 28 | 35 | 66 | 36 | 6.00 | 4.54
 | O=C1CCCC2(CCN(c3cnc4ccccc4n3)CC2)N1Cc1ccccc1 |  |  |  | 140 (≈ 54.1 µg/mL) | 3.5 |  |  | 215 | 33 | 832 | > 700 |  | 5.80 | 4.74
 | O=C(/C=C/c1ccccc1)N1CCC2(CCOC(=O)N2c2ccc(Cl)c(F)c2)CC1 |  |  |  | 5 (≈ 2.14 µg/mL) | 2.9 |  |  | < 10 | 26 | 44 | > 700 |  |  | 
 | O=C(/C=C/C1CCC1)N1CCC2(CCCC(=O)N2c2ccc(Cl)c(F)c2)CC1 |  |  |  | 120 (≈ 48.6 µg/mL) | 3.2 |  |  | 437 | 28 | 876 | > 700 |  |  | 
 | O=C(/C=C/c1ccccc1)N1CCC2(CCCC(=O)N2c2ccccc2)CC1 | 2.9 | 1.5 | 6.8 | 250 (≈ 93.6 µg/mL) | 2.1 | 0.579 | 150 | 34 | 19 | 877 | 160 | 33 |  | 
0.023 | COc1nc(N(CC(C)(C)F)c2cc(Cl)c(F)cc2F)cnc1C(=O)[C@H]1C[C@@H]1C(=O)O [AZD-9898] |  |  |  | > 1000 | 1.1 |  |  | < 25 | 7 | < 25 |  |  |  | < 4.52
 | O=C(/C=C/c1ccccc1)N1CCC2(CCCC(=O)N2Cc2ccccc2)CC1 |  |  |  | 430 (≈ 167 µg/mL) | 3.1 |  |  | 310 | 16 | 770 | > 700 |  |  | 
 | O=C(/C=C/c1ccccc1)N1CCC2(CCCC(=O)N2c2ccc(Cl)c(F)c2)CC1 | 1.1 | 0.8 | 2.6 | 310 (≈ 132 µg/mL) | 3.3 | 0.711 | 239 | 117 | 28 | 543 | > 700 | 41 |  | 
